According to patent publication US10597388B2, “Pyridazinone herbicides” (FMC CORPORATION, priority 2014, dated 2020):

Columns and labels:
Test in all cases: Test D controlled growth environment herbicide test, pre- and postemergence
Type in all cases: in vivo
[1] = test system: oat, wild (wild oat, Avena fatua)
Method in brief: (§1)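 Species sown in silt loam and sprayed preemergence, or grown in peat-based medium to 2–18 cm (1- to 4-leaf stage) and sprayed postemergence, with compounds in non-phytotoxic solvent plus surfactant. Visual injury scored versus controls after 14–21 d in a controlled environment, 0 (no effect) to 100 (complete control).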

[2] = test system: lambsquarters (Chenopodium album)
Method in brief: as §1

[3] = test system: barley, winter (winter barley, Hordeum vulgare)
Method in brief: as §1

[4] = test system: wheat, spring (spring wheat, Triticum aestivum)
Method in brief: as §1

[5] = test system: radish, wild (wild radish, Raphanus raphanistrum)
Method in brief: as §1

[6] = test system: bluegrass (annual bluegrass, Poa annua)
Method in brief: as §1

[7] = test system: field poppy (Papaver rhoeas)
Method in brief: as §1

[8] = test system: Russian thistle (Salsola kali)
Method in brief: as §1

[9] = test system: chickweed (common chickweed, Stellaria media)
Method in brief: as §1

[10] = test system: wheat, winter (winter wheat, Triticum aestivum)
Method in brief: as §1

[11] = test system: canarygrass (Phalaris minor)
Method in brief: as §1

[12] = test system: field violet (Viola arvensis)
Method in brief: as §1

[13] = test system: barley, spring (spring barley, Hordeum vulgare)
Method in brief: as §1

[14] = Postemergence, 31 g ai/ha, scale 0 to 100 (0 no effect, 100 complete control)
[15] = Postemergence, 125 g ai/ha, visual rating on scale 0 (no effect) to 100 (complete control), 14 to 21 d
[16] = Postemergence, 250 g ai/ha, scale 0 to 100 (0 no effect, 100 complete control)
[17] = Preemergence, 125 g ai/ha, scale 0 to 100 (0 no effect, 100 complete control)
[18] = Preemergence, 250 g ai/ha, scale 0 to 100, 0 no effect, 100 complete control
[19] = postemergence, 62 g ai/ha, scale 0 to 100, 0 no effect, 100 complete control
[20] = Preemergence, 62 g ai/ha, scale 0 to 100 (0 no effect, 100 complete control)

## CCCC(=O)Oc1c(C)nn(C)c(=O)c1-c1c(C)sc2ccc(C)cc12 [Compound 105]
[1]; [14]
  Oat, Wild plant response rating: 80
[1]; [15]
  Plant response rating, Oat, Wild: 95
[1]; [16]
  Plant response rating, Oat, Wild: 100
[1]; Preemergence, 31 g ai/ha
  Plant response rating (scale of 0 to 100), Oat, Wild: 80
[1]; Preemergence, 62 g ai/ha
  Plant response rating (scale of 0 to 100), Oat, Wild: 80
[1]; [17]
  Plant response rating, Oat, Wild: 85
[1]; [18]
  Plant response rating, Oat, Wild: 100
[1]; [19]
  Plant response rating, Oat, Wild: 85
[2]; [14]
  Lambsquarters plant response rating: 85
[2]; [15]
  Plant response rating, Lambsquarters: 90
[2]; [16]
  Plant response rating, Lambsquarters: 95
[2]; Preemergence, 31 g ai/ha
  Plant response rating (scale of 0 to 100), Lambsquarters: 95
[2]; Preemergence, 62 g ai/ha
  Plant response rating (scale of 0 to 100), Lambsquarters: 100
[2]; [17]
  Plant response rating, Lambsquarters: 100
[2]; [18]
  Plant response rating, Lambsquarters: 100
[2]; [19]
  Plant response rating, Lambsquarters: 95
[3]; [14]
  Barley, Winter plant response rating: 0
[3]; [15]
  Plant response rating, Barley, Winter: 10
[3]; [16]
  Plant response rating, Barley, Winter: 15
[3]; Preemergence, 31 g ai/ha
  Plant response rating (scale of 0 to 100), Barley, Winter: 5
[3]; [20]
  Plant response rating, Barley, Winter: 10
[3]; [17]
  Plant response rating, Barley, Winter: 10
[3]; [18]
  Plant response rating, Barley, Winter: 25
[3]; [19]
  Plant response rating, Barley, Winter: 10
[4]; [14]
  Wheat, Spring plant response rating: 0
[4]; [15]
  Plant response rating, Wheat, Spring: 20
[4]; [16]
  Plant response rating, Wheat, Spring: 25
[4]; Preemergence, 31 g ai/ha
  Plant response rating (scale of 0 to 100), Wheat, Spring: 0
[4]; Preemergence, 62 g ai/ha
  Plant response rating (scale of 0 to 100), Wheat, Spring: 0
[4]; [17]
  Plant response rating, Wheat, Spring: 0
[4]; [18]
  Plant response rating, Wheat, Spring: 40
[4]; [19]
  Plant response rating, Wheat, Spring: 10
[5]; [14]
  Radish, Wild plant response rating: 5
[5]; [15]
  Plant response rating, Radish, Wild: 20
[5]; [16]
  Plant response rating, Radish, Wild: 70
[5]; Preemergence, 62 g ai/ha
  Plant response rating (scale of 0 to 100), Radish, Wild: 15
[5]; [17]
  Plant response rating, Radish, Wild: 35
[5]; [18]
  Plant response rating, Radish, Wild: 55
[5]; [19]
  Plant response rating, Radish, Wild: 15
[6]; [14]
  Bluegrass plant response rating: 10
[6]; [15]
  Plant response rating, Bluegrass: 20
[6]; [16]
  Plant response rating, Bluegrass: 25
[6]; Preemergence, 31 g ai/ha
  Plant response rating (scale of 0 to 100), Bluegrass: 25
[6]; [20]
  Plant response rating, Bluegrass: 30
[6]; [17]
  Plant response rating, Bluegrass: 60
[6]; [18]
  Plant response rating, Bluegrass: 75
[6]; [19]
  Plant response rating, Bluegrass: 10
[7]; [14]
  Field Poppy plant response rating: 70
[7]; [15]
  Plant response rating, Field Poppy: 80
[7]; [16]
  Plant response rating, Field Poppy: 80
[7]; Preemergence, 31 g ai/ha
  Plant response rating (scale of 0 to 100), Field Poppy: 100
[7]; Preemergence, 62 g ai/ha
  Plant response rating (scale of 0 to 100), Field Poppy: 100
[7]; [17]
  Plant response rating, Field Poppy: 100
[7]; [18]
  Plant response rating, Field Poppy: 100
[7]; [19]
  Plant response rating, Field Poppy: 75
[8]; [14]
  Russian Thistle plant response rating: 40
[8]; [15]
  Plant response rating, Russian Thistle: 50
[8]; [16]
  Plant response rating, Russian Thistle: 50
[8]; Preemergence, 31 g ai/ha
  Plant response rating (scale of 0 to 100), Russian Thistle: 0
[8]; Preemergence, 62 g ai/ha
  Plant response rating (scale of 0 to 100), Russian Thistle: 60
[8]; [17]
  Plant response rating, Russian Thistle: 70
[8]; [18]
  Plant response rating, Russian Thistle: 90
[8]; [19]
  Plant response rating, Russian Thistle: 45
[9]; [14]
  Chickweed plant response rating: 90
[9]; [15]
  Plant response rating, Chickweed: 100
[9]; [16]
  Plant response rating, Chickweed: 100
[9]; Preemergence, 31 g ai/ha
  Plant response rating (scale of 0 to 100), Chickweed: 100
[9]; Preemergence, 62 g ai/ha
  Plant response rating (scale of 0 to 100), Chickweed: 100
[9]; [17]
  Plant response rating, Chickweed: 100
[9]; [18]
  Plant response rating, Chickweed: 100
[9]; [19]
  Plant response rating, Chickweed: 90
[10]; [14]
  Wheat, Winter plant response rating: 0
[10]; [15]
  Plant response rating, Wheat, Winter: 10
[10]; [16]
  Plant response rating, Wheat, Winter: 20
[10]; Preemergence, 31 g ai/ha
  Plant response rating (scale of 0 to 100), Wheat, Winter: 0
[10]; Preemergence, 62 g ai/ha
  Plant response rating (scale of 0 to 100), Wheat, Winter: 0
[10]; [17]
  Plant response rating, Wheat, Winter: 5
[10]; [18]
  Plant response rating, Wheat, Winter: 5
[10]; [19]
  Plant response rating, Wheat, Winter: 5
[11]; [14]
  Canarygrass plant response rating: 40
[11]; [15]
  Plant response rating, Canarygrass: 75
[11]; [16]
  Plant response rating, Canarygrass: 80
[11]; Preemergence, 31 g ai/ha
  Plant response rating (scale of 0 to 100), Canarygrass: 85
[11]; Preemergence, 62 g ai/ha
  Plant response rating (scale of 0 to 100), Canarygrass: 95
[11]; [17]
  Plant response rating, Canarygrass: 95
[11]; [18]
  Plant response rating, Canarygrass: 98
[11]; [19]
  Plant response rating, Canarygrass: 50
[12]; [14]
  Field Violet plant response rating: 85
[12]; [15]
  Plant response rating, Field Violet: 95
[12]; [16]
  Plant response rating, Field Violet: 100
[12]; Preemergence, 31 g ai/ha
  Plant response rating (scale of 0 to 100), Field Violet: 100
[12]; Preemergence, 62 g ai/ha
  Plant response rating (scale of 0 to 100), Field Violet: 100
[12]; [17]
  Plant response rating, Field Violet: 100
[12]; [18]
  Plant response rating, Field Violet: 100
[12]; [19]
  Plant response rating, Field Violet: 90
[13]; [14]
  Barley, Spring plant response rating: 0
[13]; [15]
  Plant response rating, Barley, Spring: 10
[13]; [16]
  Plant response rating, Barley, Spring: 15
[13]; Preemergence, 31 g ai/ha
  Plant response rating (scale of 0 to 100), Barley, Spring: 0
[13]; [20]
  Plant response rating, Barley, Spring: 0
[13]; [17]
  Plant response rating, Barley, Spring: 0
[13]; [18]
  Plant response rating, Barley, Spring: 20
[13]; [19]
  Plant response rating, Barley, Spring: 5
